Experimental data published in patent publication US6407099B1, “Arylpiperidinopropanol and arylpiperazinopropanol derivatives and pharmaceuticals containing the same” (Suntory Limited, priority 1997, dated 2002).

Tested on: DBA/2N type mice
Assay: Audiogenic seizure suppressing effect
Type: in vivo
Settings: compound 10 mg/kg, i.p., audio stimulus after 20 minutes, seizure score; for inhibition in vivo at 10 mg/kg: Mus musculus, ip, 20 min, read-out: Antiseizure effect (suppression rate %)
Description: Audiogenic Seizure Suppressing Effect
The audiogenic seizure suppressing effect of the compounds was evaluated by the method of Sarro et al. [G. B. De Sarro et al., Br. J. Pharmacol., 93, 247 (1988)]. That is, the compound dissolved in 10% 2-hydroxypropyl-β-cyclodextrin was administered intraperitoneally to DBA/2N type mice (male, 3 weeks old). After 20 minutes, a supersonic washer was used to apply audio stimulus of at least 90 dB for 1 minute. The wild running (WR), clonic seizures (clonus), tonic seizures (tonus), and the respiratory arrest (RA) were observed. The seizure suppressing effect was evaluated from the rate of suppression of the average value of the seizure score found as 0=no response, 1=WR, 2=clonus, 3=tonus, and 4=RA.

| SMILES | inhibition in vivo at 10 mg/kg [%] | Antiseizure effect (suppression rate %) (10 mg/kg) [%] |
| --- | --- | --- |
| Nc1cc(Cl)c(OC[C@@H](O)CN2CCC(c3ccc(Oc4ccccc4)cc3)CC2)c(Cl)c1 [Compound 51, (2S)-1-[(4-amino-2,6-dichloro)phenoxy]-3-[4-(4-phenoxyphenyl)piperidin-1-yl]-2-propanol] | 74 |  |
| Cc1cc(OC[C@@H](O)CN2CCN(c3ccc(Cc4ccc(F)cc4)cc3)CC2)c(C)cc1N [Compound 34] | 74 |  |
| Cc1cc(OC[C@@H](O)CN2CCC(O)(c3ccc(-c4ccccc4)c(F)c3)CC2)c(C)c(C)c1N [Compound 30] | 44 |  |
| Cc1c(N)ccc(OC[C@@H](O)CN2CCC(c3ccc(Cc4ccc(F)cc4)cc3)CC2)c1C [Compound 36, (2S)-1-[(4-amino-2,3-dimethyl)phenoxy]-3-[4-(4-(4-fluorophenyl)methylphenyl)piperidin-1-yl]-2-propanol] | 68 |  |
| Cc1cc(OC[C@@H](O)CN2CCC(c3ccc(OC4CCCC4)cc3)CC2)c(C)c(C)c1N [Compound 31, (2S)-1-[(4-amino-2,3,5-trimethyl)phenoxy]-3-[4-(4-cyclopentyloxyphenyl)piperidin-1-yl]-2-propanol] | 74 |  |
| COc1ccc(N)cc1OC[C@@H](O)CN1CCN(c2ccc(Cc3ccc(F)cc3)cc2)CC1 [Compound 44, (2S)-1-[(5-amino-2-methoxy)phenoxy]-3-[4-(4-(4-fluorophenyl)methylphenyl)piperazin-1-yl]-2-propanol] | 80 |  |
| Cc1cc(C)c(OC[C@@H](O)CN2CCN(c3ccc(Cc4ccc(F)cc4)cc3)CC2)c(N)c1 [Compound 48, (2S)-1-[(2-amino-4,6-dimethyl)phenoxy]-3-[4-(4-(4-fluorophenyl)methylphenyl)piperazin-1-yl]-2-propanol] | 70 |  |
| COc1ccc(NCC(O)CN2CCC(c3ccc(Cc4ccc(F)cc4)cc3)CC2)c(C)c1 (centres unmarked) [Compound 54] | 58 |  |
| Cc1cc(OC[C@@H](O)CN2CCC(c3ccc(Cc4ccc(F)cc4)cc3)CC2)c(C)cc1N [Compound 33, (2S)-1-[(4-amino-2,5-dimethyl)phenoxy]-3-[4-(4-(4-fluorophenyl)methylphenyl)piperidin-1-yl]-2-propanol] | 78 |  |
| Cc1cc(OC[C@@H](O)CN2CCC(c3ccc(Oc4ccccc4)cc3)CC2)c(C)cc1N [Compound 32] | 70 |  |
| Cc1cc(N)c(C)c(C)c1OC[C@@H](O)CN1CCC(c2ccc(Oc3ccccc3)cc2)CC1 [Compound 38, (2S)-1-[(4-amino-2,3,6-trimethyl)phenoxy]-3-[4-(4-phenoxyphenyl)piperidin-1-yl]-2-propanol] | 92 |  |
| Cc1cc(C)c(OC[C@@H](O)CN2CCC(c3ccc(Oc4ccccc4)cc3)CC2)c(N)c1 [Compound 46, (2S)-1-[(2-amino-4,6-dimethyl)phenoxy]-3-[4-(4-phenoxyphenyl)piperidin-1-yl]-2-propanol] | 88 |  |
| Cc1c(C)c(NCC(O)CN2CCC(c3ccc(Oc4ccccc4)cc3)CC2)c(C)c(C)c1N (centres unmarked) [Compound 58, 3-[(4-amino-2,3,5,6-tetramethyl)phenylamino]-1-[4-(4-phenoxyphenyl)piperidin-1-yl]-2-propanol] | 68 |  |
| COc1ccc(N)cc1OC[C@@H](O)CN1CCC(c2ccc(OC3CCCC3)cc2)CC1 [Compound 45] | 44 |  |
| COc1ccc(NCC(O)CN2CCN(c3ccc(Cc4ccc(F)cc4)cc3)CC2)c(C)c1 (centres unmarked) [Compound 55] | 70 |  |
| Cc1c(N)ccc(OC[C@@H](O)CN2CCC(c3ccc(Oc4ccccc4)cc3)CC2)c1C [Compound 35, (2S)-1-[(4-amino-2,3-dimethyl)phenoxy]-3-[4-(4-phenoxyphenyl)piperidin-1-yl]-2-propanol] | 74 |  |
| COc1ccc(NC[C@H](O)CN2CCC(c3ccc(Oc4ccccc4)cc3)CC2)c(C)c1 [Compound 57] |  | 68 |
